We go through eight molecules from publication PMC7753975 (Journal of medicinal chemistry, 2015).

One series concerns NCI-60 human tumor cell lines. The series can be described thus: NCI-60 five-dose assay, mean graph midpoint. In kind it is cell-based. The following applies: Homo sapiens, read-out: cytotoxicity (GI50, μM) MGM, mean graph midpoint of growth inhibition from 5 dose assay, ranging from 10^−8–10^−4 M.
Turning to `O=C1c2ccccc2-c2c1c1cc(C(F)(F)F)ccc1c(=O)n2CCCn1ccnc1` [Compound 63, 2-(Trifluoromethyl)-5,6-dihydro-6-(3-(1H-imidazol-1-yl)-propyl)-5,11-dioxo-11H-indeno[1,2-c]isoquinoline], the GI50 was at least 0.944 µM.
The same measure, in the same setting: the figure for `O=C1c2ccccc2-c2c1c1ccc(F)cc1c(=O)n2CCCn1ccnc1` [Compound 60, 3-Fluoro-5,6-dihydro-6-(3-(1H-imidazol-1-yl)propyl)-5,11-dioxo-11H-indeno[1,2-c]isoquinoline] is 0.692 µM; for `O=C1c2ccccc2-c2c1c1ccc(Cl)cc1c(=O)n2CCCN1CCOCC1` [Compound 69, 3-Chloro-5,6-dihydro-6-(3-morpholinopropyl)-5,11-dioxo-11H-indeno[1,2-c]isoquinoline] it is 4.17 µM.
Same read-out and setting: under `O=C1c2ccccc2-c2c1c1ccc(F)cc1c(=O)n2CCCN1CCOCC1` [Compound 68, 3-Fluoro-5,6-dihydro-6-(3-morpholinopropyl)-5,11-dioxo-11H-indeno[1,2-c]isoquinoline] stands 2.75 µM.
As to `O=C1c2ccccc2-c2c1c1ccc(C(F)(F)F)cc1c(=O)n2CCCn1ccnc1` [Compound 64, 3-(Trifluoromethyl)-5,6-dihydro-6-(3-(1H-imidazol-1-yl)-propyl)-5,11-dioxo-11H-indeno[1,2-c]isoquinoline], the GI50 was 1.07 µM.
On to `O=C1c2ccccc2-c2c1c1ccc(Cl)cc1c(=O)n2C[C@H](O)CO` [Compound 50, (S)-3-Chloro-5,6-dihydro-6-(2,3-dihydroxypropyl)-5,11-dioxo-11H-indeno[1,2-c]isoquinoline], for which the GI50 was found to be 1.12 µM.
Same read-out and setting: the figure for `O=C1c2ccccc2-c2c1c1ccc(I)cc1c(=O)n2CCCn1ccnc1` [Compound 62, 5,6-Dihydro-6-(3-(1H-imidazol-1-yl)propyl)-3-iodo-5,11-dioxo-11H-indeno[1,2-c]isoquinoline] is at least 0.944 µM.
Turning to `CC[C@@]1(O)C(=O)OCc2c1cc1n(c2=O)Cc2cc3c(CN(C)C)c(O)ccc3nc2-1` [Compound 2, topotecan, reference compound], the GI50 amounted to 0.0405 ± 0.0187 µM.

Staying with this series, now noted: human.
`O=C1c2ccccc2-c2c1c1ccc(I)cc1c(=O)n2CCCn1ccnc1` [Compound 62, 5,6-Dihydro-6-(3-(1H-imidazol-1-yl)propyl)-3-iodo-5,11-dioxo-11H-indeno[1,2-c]isoquinoline]: the GI50 was 1.62 µM.
